Results reported in ChEMBL document CHEMBL3881525, “Analogs of dehydrophenylahistins and their therapeutic use” (2007).
Values after ≈ are worked out from the molar mass of the structure shown. Active and inactive are the calls of the source. The rule behind the calls is not given here.

How the values were obtained:
[1] = Drug level assessed as human hepatic cytochrome P450-mediated compound formation treated with (+/-)phenylahistin; format: ADME
[2] = Antiproliferative activity against taxol-resistant human MES-SA/Dx5 cells expressing MDR1 mRNA and P-gp; format: functional, cell-based
[3] = system: HT-29; experiment: Ratio of IC50 for human CCD-27sk cells to IC50 for human HT-29 cells
[4] = Cytotoxicity against human PC3 cells assessed as reduction in cell viability measured after 48 hrs by resazurin dye-based fluorometric analysis; format: functional; conditions: PC-3, 48 h
[5] = Cytotoxicity against human CCD-27Sk cells assessed as reduction in cell viability measured after 48 hrs by resazurin dye-based fluorometric analysis relative to control; conditions: read-out: INH
[6] = system: Candida albicans; experiment: Antifungal activity against Candida albicans 90028 measured after 48 hrs by broth dilution method; format: functional; conditions: Candida albicans, 90028, 48 h
[7] = system: Candida albicans; experiment: Antifungal activity against Candida albicans ATCC 10231 measured after 48 hrs by broth dilution method; format: functional; conditions: ATCC 10231, 48 h
[8] = Cytotoxicity against human NCI-H292 cells assessed as reduction in cell viability measured after 48 hrs by resazurin dye-based fluorometric analysis relative to control; format: functional
[9] = Cytotoxicity against human HT-29 cells assessed as reduction in cell viability measured after 48 hrs by resazurin dye-based fluorometric analysis relative to control; format: functional
[10] = system: MDA-MB-231; experiment: Ratio of IC50 for human CCD-27sk cells to IC50 for human MDA-MB-231 cells
[11] = Cytotoxicity against human MDA-MB-231 cells assessed as reduction in cell viability measured after 48 hrs by resazurin dye-based fluorometric analysis; format: functional; conditions: MDA-MB-231, 48 h
[12] = Antiproliferative activity against taxol-resistant human MES-SA/Dx5 cells expressing MDR1 mRNA and P-gp pretreated with p-gp inhibitor cyclosporinA followed by compound addition; format: functional, cell-based
[13] = Cytotoxicity against human OVCAR3 cells assessed as reduction in cell viability measured after 48 hrs by resazurin dye-based fluorometric analysis relative to control; format: functional, OVCAR-3
[14] = Cytotoxicity against human OVCAR3 cells assessed as reduction in cell viability measured after 48 hrs by resazurin dye-based fluorometric analysis; format: functional; conditions: OVCAR-3, 48 h
[15] = system: MES-SA; experiment: Ratio of IC50 for taxol-sensitive human […] to IC50 for taxol-sensitive human […] pretreated with p-gp inhibitor cyclosporinA followed by compound addition; format: functional
[16] = Antiproliferative activity against taxol-sensitive human MES-SA cells pretreated with p-gp inhibitor cyclosporinA followed by compound addition; format: functional, cell-based
[17] = system: NCI-H292; experiment: Ratio of IC50 for human CCD-27sk cells to IC50 for human NCI-H292 cells
[18] = Cytotoxicity against mouse B16F10 cells assessed as reduction in cell viability measured after 48 hrs by resazurin dye-based fluorometric analysis relative to control; format: functional, B16-F10
[19] = system: Aspergillus fumigatus; experiment: Antifungal activity against Aspergillus fumigatus isolate 2 measured after 48 hrs by broth dilution method; format: functional; conditions: isolate 2, 48 h
[20] = Cytotoxicity against human Jurkat cells; format: functional, cell-based
[21] = system: Aspergillus fumigatus; experiment: Fungicidal activity against Aspergillus fumigatus isolate 2 measured after 48 hrs by broth dilution method; format: functional; conditions: isolate 2, 48 h
[22] = Antiproliferative activity against taxol-sensitive human MES-SA cells […]; format: functional, cell-based
[23] = system: Aspergillus fumigatus; experiment: Antifungal activity against Aspergillus fumigatus isolate 1 measured after 48 hrs by broth dilution method; format: functional; conditions: isolate 1, 48 h
[24] = Antitumor activity against human HT-29 cells xenografted in nude mouse assessed as tumor growth inhibition at 30 mg/kg, ip administered every third day for 5 days in presence of CPT-11 relative to control; format: functional; conditions: HT-29, ip, 120 h, read-out: TGI
[25] = system: B16-F10; experiment: Ratio of IC50 for human CCD-27sk cells to IC50 for mouse B16F10 cells
[26] = system: HUVEC; experiment: Induction of monolayer permeability in HUVEC assessed as colchicin transport at 2 uM measured up to 1 hr; format: functional, cell-based; conditions: Homo sapiens
[27] = Cytotoxicity against human PC3 cells assessed as reduction in cell viability measured after 48 hrs by resazurin dye-based fluorometric analysis relative to control; format: functional, PC-3; set-up: concentration or dose not given beside the values
[28] = Antiproliferative activity against human mitoxantrone-resistant HL60/MX2 cells; format: functional, cell-based; conditions: HL-60
[29] = system: MES-SA/Dx5; experiment: Ratio of IC50 for taxol-resistant human MES-SA/Dx5 cells expressing MDR1 mRNA and P-gp to IC50 for taxol-resistant human MES-SA/Dx5 cells expressing MDR1 mRNA and P-gp pretreated with p-gp inhibitor cyclosporinA followed by compound addition; format: functional
[30] = Cytotoxicity against human NCI-H292 cells assessed as reduction in cell viability measured after 48 hrs by resazurin dye-based fluorometric analysis; format: functional; conditions: NCI-H292, 48 h
[31] = system: Jurkat; experiment: Induction of apoptosis in human Jurkat cells assessed as caspase3 activation; format: functional, cell-based
[32] = Cytotoxicity against mouse B16F10 cells assessed as reduction in cell viability measured after 48 hrs by resazurin dye-based fluorometric analysis; format: functional; conditions: B16-F10, 48 h
[33] = system: PC-3; experiment: Ratio of IC50 for human CCD-27sk cells to IC50 for human PC3 cells
[34] = system: HL-60; experiment: Ratio of IC50 for human mitoxantrone-sensitive HL60 cells to IC50 for human mitoxantrone-resistant HL60/MX2 cells; format: functional
[35] = Antifungal activity against Candida glabrata measured after 48 hrs by broth dilution method; format: functional; conditions: Nakaseomyces glabratus
[36] = system: MCF7; experiment: Potentiation of taxotere-induced antitumor activity against human MCF7 cells xenografted in nude mouse assessed as tumor growth inhibition at 7.5 mg/kg, ip qd for 4 days measured on day 7; format: functional, organism-based
[37] = Antiproliferative activity against human mitoxantrone-sensitive HL60 cells; format: functional, cell-based; conditions: HL-60
[38] = Cytotoxicity against human CCD-27Sk cells assessed as reduction in cell viability measured after 48 hrs by resazurin dye-based fluorometric analysis
[39] = Cytotoxicity against human HT-29 cells assessed as reduction in cell viability measured after 48 hrs by resazurin dye-based fluorometric analysis; format: functional; conditions: Homo sapiens, HT-29, 48 h
[40] = system: HeLa; experiment: Effect on cell cycle progression in human HeLa cells assessed as reduction in 2N cells at 200 nM; format: functional, cell-based
[41] = Antitumor activity against mouse B16F10 cells allografted in nude mouse assessed as mean growth inhibition at 10 mg/kg, iv qd for 5 days relative to control; format: functional, B16-F10; set-up: scale not given: the % may be the effect or the level left
[42] = Antitumor activity against human MDA-MB-231 cells xenografted in nude mouse assessed as tumor growth inhibition at 7.5 mg/kg, ip qd for 5 days relative to control; format: functional; conditions: MDA-MB-231, ip, 120 h, read-out: TGI
[43] = Antiproliferative activity against human taxol-sensitive MCF7 cells; format: functional, cell-based
[44] = system: MES-SA; experiment: Ratio of EC50 for taxol-resistant human MES-SA/DX5 cells expressing MDR1 mRNA and P-gp to EC50 for taxol-sensitive human MES-SA cells; format: functional
[45] = system: MCF7; experiment: Ratio of IC50 for human taxol-sensitive MCF7 cells to IC50 for human taxol-resistant MCF7/ADR cells; format: functional
[46] = system: HeLa; experiment: Effect on cell cycle progression in human HeLa cells assessed as […] cells at 200 nM; format: functional, cell-based
[47] = system: MES-SA; experiment: Ratio of IC50 for taxol-sensitive human […] to IC50 for taxol-resistant human MES-SA/DX5 cells expressing MDR1 mRNA and P-gp; format: functional
[48] = system: MCF7; experiment: Antimitotic activity in human MCF7 cells assessed as microtubule polymer at twice mitotic block IC50 measured after 20 hrs by immunofluorescence analysis relative to control; format: functional, cell-based
[49] = system: MCF7; experiment: (§1) Antimitotic activity in human MCF7 cells assessed as bipolar cells with uncompressed chromosomes at mitotic block IC50 measured after 20 hrs by immunofluorescence analysis relative to control; format: functional
[50] = as §1; format: functional
[51] = system: MCF7; experiment: Antimitotic activity in human MCF7 cells assessed as mitotic index measured after 20 hrs by DAPI-staining based fluorescence microscopic analysis; format: functional, cell-based
[52] = system: MCF7; experiment: Antimitotic activity in human MCF7 cells assessed as decrease in microtubule polymer formation measured after 20 hrs by immunofluorescence analysis relative to control; format: functional, cell-based
[53] = Antitumor activity against human A549 cells xenografted in nude mouse assessed as tumor growth inhibition at […], ip qd for 5 days relative to control; format: functional; conditions: 120 h, read-out: TGI
[54] = Antitumor activity against human MCF7 cells xenografted in nude mouse assessed as tumor growth inhibition at 7.5 mg/kg, ip qd for 5 days relative to control; format: functional; conditions: 120 h, read-out: TGI
[55] = Antitumor activity against human DU145 cells xenografted in nude mouse assessed as tumor growth inhibition at […], iv administered every third day measured on day 28 relative to control; format: functional; conditions: DU-145, iv, 672 h, read-out: TGI
[56] = Antitumor activity against human A549 cells xenografted in nude mouse assessed as tumor growth inhibition at 7.5 mg/kg, ip qd for 5 days relative to control; format: functional; conditions: 120 h, read-out: TGI

Compound: CC(C)(c1[nH]cnc1/C=C1\NC(=O)[C@H](Cc2ccccc2)NC1=O)C1CO1 (stereo in doubt)
- Drug metabolism [1]: Metabolite_Detected

Compound: CC(C)(C)c1[nH]cnc1/C=C1\NC(=O)C(Cc2ccccc2)NC1=O (centres undefined)
- IC50 [2]: 694 to 835 nM
- Ratio IC50 [3]: >20 - 100
- EC50 [4]: 174 nM
- cytotoxicity at 48 h [5]: 45%
- MIC [6]: > 32 µg/mL
- MIC [7]: > 32 µg/mL
- inhibition (INH) [8]: 65%
- Activity [9]: 88%
- Ratio IC50 [10]: >20 - 100
- EC50 [11]: 387 nM
- IC50 [12]: 622 nM
- inhibition (INH) [13]: 37%
- EC50 [14]: > 20000 nM
- Ratio IC50 [15]: 1.3
- IC50 [16]: 27.4 nM
- Ratio IC50 [17]: >20 - 100
- inhibition (INH) [18]: 74%
- MIC [19]: < 0.03 µg/mL
- IC50 [20]: 165 nM
- MFC [21]: 0.125 µg/mL (≈ 0.369 µM)
- EC50 [22]: 122 to 144 nM
- MIC [23]: > 16 µg/mL
- inhibition in vivo at 30 mg/kg [24]: 77.7%
- Ratio IC50 [25]: >20 - 100
- Activity [26]: Active
- Activity [27]: 59.5%
- EC50 [28]: 175 nM
- Ratio IC50 [29]: 0.9
- EC50 [30]: 384 nM
- Activity [31]: Dose-dependent effect
- EC50 [32]: 736 nM
- Ratio IC50 [33]: >20 - 100
- Ratio IC50 [34]: 0.69
- MIC [35]: > 32 µg/mL
- TGI [36]: Active
- EC50 [37]: 255 nM
- EC50 [38]: > 20000 nM
- EC50 [39]: 255 to 420 nM

Compound: CC(=O)O[C@H]1C(=O)[C@@]2(C)[C@H]([C@H](OC(=O)c3ccccc3)[C@]3(O)C[C@H](OC(=O)[C@H](O)[C@@H](NC(=O)c4ccccc4)c4ccccc4)C(C)=C1C3(C)C)[C@]1(OC(C)=O)CO[C@@H]1C[C@@H]2O [PACLITAXEL]
- IC50 [2]: 100 to 24000 nM
- Activity [40]: Active
- Activity [41]: 35%
- IC50 [12]: 2 to 40 nM
- Ratio IC50 [15]: 0.4 - 0.6
- EC50 [16]: 2.8 to 18 nM
- inhibition in vivo at 7.5 mg/kg [42]: 53%
- EC50 [22]: 4.8 to 13 nM
- IC50 [43]: 2.6 nM
- Ratio EC50 [44]: 417
- Ratio IC50 [45]: >38
- Activity [46]: Active
- Ratio IC50 [47]: >8 - 3000
- EC50 [39]: 16.2 nM

Compound: COc1cc2c(c(OC)c1OC)-c1ccc(OC)c(=O)cc1[C@@H](NC(C)=O)CC2 [COLCHICINE]
- Activity [48]: Active
- Activity [49]: Active
- Activity [50]: 50%
- inhibition [51]: Dose-dependent effect
- Activity [52]: Dose-dependent effect
- MIC [35]: > 128 µg/mL

Compound: CC(=O)O[C@@]12CO[C@@H]1C[C@H](O)[C@@]1(C)C(=O)[C@H](O)C3=C(C)[C@@H](OC(=O)[C@H](O)[C@@H](NC(=O)OC(C)(C)C)c4ccccc4)C[C@@](O)([C@@H](OC(=O)c4ccccc4)[C@H]21)C3(C)C [DOCETAXEL ANHYDROUS]
- inhibition in vivo at […] [53]: 26.1%
- inhibition in vivo at 7.5 mg/kg [54]: 12 to 58%
- inhibition in vivo at […] [55]: 44.8%
- inhibition in vivo at 7.5 mg/kg [56]: 26%
- TGI [36]: Active
